In ChEMBL document CHEMBL4024754, “Development of Potent, Protease-Resistant Agonists of the Parathyroid Hormone Receptor with Broad β Residue Distribution” (J Med Chem, 2017):
Numbered stars: 1 amine (or outer) side, 2 acyl side, 3 side chain; on linkers, the order of the positions; unused ones are H or OH. Square brackets hold non-standard residues; d marks the D form. Peptide text beside a SMILES is read from it. * marks the point of attachment. β3hW = N[C@H](CC(=O)O)Cc1c[nH]c2ccccc12; ACPC(1S,2S) = N[C@H]1CCC[C@@H]1C(=O)*; X1 = O=C([C@H]1CCC[C@@H]1N[*:1])[*:2]; hArg = N=C(N)NCCCC[C@H](N)C(=O)O; β3hE = N[C@@H](CCC(=O)O)CC(=O)O; β3hF = N[C@H](CC(=O)O)Cc1ccccc1; β3hK = NCCCC[C@H](N)CC(=O)O; β3hM = CSCC[C@H](N)CC(=O)O; β3hD = NC(CC(=O)O)CC(=O)O; Aib = CC(C)(N)C(=O)O

Experiments:
[1] = target: T1, Parathyroid hormone/parathyroid hormone-related peptide receptor (Homo sapiens, UniProt Q03431); test: Agonist activity at human PTH1 receptor expressed in human GP2.3 cells assessed as induction of cAMP after 12 to 20 mins by luciferase reporter gene assay; format: functional, cell-based; details: read-out: EC50
T1 sequence (Q03431 whole entry): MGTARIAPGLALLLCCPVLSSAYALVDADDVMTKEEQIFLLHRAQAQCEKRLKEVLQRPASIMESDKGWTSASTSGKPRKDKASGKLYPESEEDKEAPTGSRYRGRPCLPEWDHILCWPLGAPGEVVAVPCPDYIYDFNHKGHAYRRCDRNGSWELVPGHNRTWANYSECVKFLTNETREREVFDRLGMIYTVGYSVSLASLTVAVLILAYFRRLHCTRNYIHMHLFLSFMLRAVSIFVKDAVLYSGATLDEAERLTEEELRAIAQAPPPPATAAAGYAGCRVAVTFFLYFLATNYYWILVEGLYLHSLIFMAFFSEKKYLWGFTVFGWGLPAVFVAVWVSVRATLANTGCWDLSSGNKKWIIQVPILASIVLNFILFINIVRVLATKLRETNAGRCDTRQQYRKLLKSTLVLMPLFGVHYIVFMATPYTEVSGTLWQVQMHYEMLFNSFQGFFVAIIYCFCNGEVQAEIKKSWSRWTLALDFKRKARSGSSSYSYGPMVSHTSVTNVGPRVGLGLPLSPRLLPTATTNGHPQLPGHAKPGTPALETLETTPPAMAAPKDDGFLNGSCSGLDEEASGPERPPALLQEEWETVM

[2] = target: T2, Parathyroid hormone/parathyroid hormone-related peptide receptor (Homo sapiens) (UniProt Q03431); test: Agonist activity at human PTH1 receptor expressed in human GP2.3 cells assessed as induction of cAMP after 12 to 20 mins by luciferase reporter gene assay relative to PTH(1 to 34 residues)-NH2; format: functional, cell-based
T2 sequence (whole entry): T1 sequence (Q03431 whole entry)

| SMILES | EC50 [1] [nM] | fold change (FC) [2] |
| --- | --- | --- |
| CSCC[C@H](NC(=O)[C@H](CO)NC(=O)[C@H](CC(N)=O)NC(=O)[C@H](CC(C)C)NC(=O)[C@H](Cc1c[nH]c2ccccc12)NC(=O)[C@H](CCCCN)NC(=O)[C@H](C)NC(=O)[C@H](CCCCNC(=N)N)NC(=O)[C@H](CCC(N)=O)NC(=O)[C@H](Cc1cnc[nH]1)NC(=O)[C@H](CCSC)NC(=O)[C@H]1CCC[C@@H]1NC(=O)[C@H](CCC(N)=O)NC(=O)[C@H]1CCC[C@@H]1NC(=O)[C@H](CCC(=O)O)NC(=O)C(C)(C)NC(=O)[C@@H](NC(=O)[C@H]1CCC[C@@H]1N)C(C)C)C(=O)N[C@@H](CCCNC(=N)N)C(=O)N[C@@H](CCCNC(=N)N)C(=O)N[C@H](C(=O)N[C@@H](CCC(=O)O)C(=O)N[C@@H](Cc1c[nH]c2ccccc12)C(=O)N[C@@H](CC(C)C)C(=O)N[C@@H](CCCNC(=N)N)C(=O)N[C@@H](CCCCN)C(=O)N[C@@H](CCCCN)C(=O)N[C@@H](CC(C)C)C(=O)N[C@@H](CCC(N)=O)C(=O)N[C@@H](CC(=O)O)C(=O)N[C@H](C(=O)N[C@@H](Cc1cnc[nH]1)C(=O)N[C@@H](CC(N)=O)C(=O)N[C@@H](Cc1ccccc1)C(N)=O)C(C)C)C(C)C ({ACPC(1S,2S)}-V[Aib]E[X1]Q[X1]MHQ[hArg]AKWLNSMRRVEWLRKKLQDVHNF-NH2) | 0.4 | 4.9 |
| CC[C@H](C)[C@H](NC(=O)[C@H](CCC(=O)O)NC(=O)[C@H](C)NC(=O)[C@@H](NC(=O)[C@H](C)N)C(C)C)C(=O)N[C@@H](CCC(N)=O)C(=O)N[C@@H](CC(C)C)C(=O)N[C@@H](CCSC)C(=O)N[C@@H](Cc1cnc[nH]1)C(=O)N[C@@H](CCC(N)=O)C(=O)N[C@@H](CCCCNC(=N)N)C(=O)N[C@@H](C)C(=O)N[C@@H](CCCCN)C(=O)N[C@@H](Cc1c[nH]c2ccccc12)C(=O)N[C@@H](CC(C)C)C(=O)N[C@@H](CC(N)=O)C(=O)N[C@@H](CO)C(=O)N[C@@H](CCSC)C(=O)N[C@@H](CCCNC(=N)N)C(=O)N[C@@H](CCCNC(=N)N)C(=O)N[C@H](C(=O)N[C@@H](CCC(=O)O)C(=O)N[C@@H](Cc1c[nH]c2ccccc12)C(=O)N[C@@H](CC(C)C)C(=O)N[C@@H](CCCNC(=N)N)C(=O)N[C@@H](CCCCN)C(=O)N[C@@H](CCCCN)C(=O)N[C@@H](CC(C)C)C(=O)N[C@@H](CCC(N)=O)C(=O)N[C@@H](CC(=O)O)C(=O)N[C@H](C(=O)N[C@@H](Cc1cnc[nH]1)C(=O)N[C@@H](CC(N)=O)C(=O)N[C@@H](Cc1ccccc1)C(N)=O)C(C)C)C(C)C (H-AVAEIQLMHQ[hArg]AKWLNSMRRVEWLRKKLQDVHNF-NH2) | 0.34 | 4.2 |
| CC[C@H](C)[C@H](NC(=O)[C@H]1CCC[C@@H]1NC(=O)[C@H](C)NC(=O)[C@H](NC(=O)[C@H](CC(C)C)NC(=O)[C@H]1CNC[C@@H]1NC(=O)[C@H](Cc1cnc[nH]1)NC(=O)[C@H](CC(C)C)NC(=O)[C@H](Cc1ccccc1)NC(=O)[C@H]1CNC[C@@H]1NC(=O)[C@H](CCCNC(=N)N)NC(=O)[C@H](CCCNC(=N)N)NC(=O)[C@H](CCCNC(=N)N)NC(=O)[C@H]1CCC[C@@H]1NC(=O)[C@H](CC(=O)O)NC(=O)[C@H](CCC(N)=O)NC(=O)[C@@H](NC(=O)[C@H]1CCC[C@@H]1NC(=O)[C@H](CCCCN)NC(=O)CNC(=O)[C@H](CCCCN)NC(=O)[C@H](CC(=O)O)NC(=O)[C@H](Cc1cnc[nH]1)NC(=O)[C@H](CC(C)C)NC(=O)[C@H](CC(C)C)NC(=O)[C@H](CCC(N)=O)NC(=O)[C@H](Cc1cnc[nH]1)NC(=O)[C@H](CCC(=O)O)NC(=O)[C@H](CO)NC(=O)[C@@H](NC(=O)[C@H](C)N)C(C)C)[C@@H](C)CC)[C@@H](C)CC)C(=O)N[C@@H](Cc1cnc[nH]1)C(=O)N[C@H](C(=O)N[C@H]1CCC[C@@H]1C(N)=O)[C@@H](C)O | – | 9.4 |
| CSCC[C@@H](CC(=O)N[C@@H](CCCNC(=N)N)C(=O)N[C@@H](CCCNC(=N)N)C(=O)N[C@H](C(=O)N[C@@H](CCC(=O)O)CC(=O)N[C@@H](Cc1c[nH]c2ccccc12)C(=O)N[C@@H](CC(C)C)C(=O)N[C@@H](CCCNC(=N)N)C(=O)N[C@@H](CCCCN)CC(=O)N[C@@H](CCCCN)C(=O)N[C@@H](CC(C)C)C(=O)N[C@@H](CCC(N)=O)C(=O)N[C@@H](CC(=O)O)CC(=O)N[C@H](C(=O)N[C@@H](Cc1cnc[nH]1)C(=O)N[C@@H](CC(N)=O)C(=O)N[C@H](CC(N)=O)Cc1ccccc1)C(C)C)C(C)C)NC(=O)[C@H](CO)NC(=O)[C@H](CC(N)=O)NC(=O)[C@H](CC(C)C)NC(=O)C[C@H](Cc1c[nH]c2ccccc12)NC(=O)[C@H](CCCCN)NC(=O)[C@H](C)NC(=O)[C@H](CCCCNC(=N)N)NC(=O)[C@H](CCC(N)=O)NC(=O)[C@H](Cc1cnc[nH]1)NC(=O)[C@H](CCSC)NC(=O)[C@H]1CCC[C@@H]1NC(=O)[C@H](CCC(N)=O)NC(=O)[C@H]1CCC[C@@H]1NC(=O)[C@H](CCC(=O)O)NC(=O)C(C)(C)NC(=O)[C@@H](NC(=O)[C@H]1CCC[C@@H]1N)C(C)C ({ACPC(1S,2S)}-V[Aib]E[X1]Q[X1]MHQ[hArg]AK[β3hW]LNS[β3hM]RRV[β3hE]WLR[β3hK]KLQ[β3hD]VHN[β3hF]-NH2) | 0.79 | 9.7 |
| CC[C@H](C)[C@H](NC(=O)[C@H](CCC(=O)O)NC(=O)C(C)(C)NC(=O)[C@@H](NC(=O)[C@H]1CCC[C@@H]1N)C(C)C)C(=O)N[C@@H](CCC(N)=O)C(=O)N[C@H]1CCC[C@@H]1C(=O)N[C@@H](CCSC)C(=O)N[C@@H](Cc1cnc[nH]1)C(=O)N[C@@H](CCC(N)=O)C(=O)N[C@@H](CCCCNC(=N)N)C(=O)N[C@@H](C)C(=O)N[C@@H](CCCCN)C(=O)N[C@H](CC(=O)N[C@@H](CC(C)C)C(=O)N[C@@H](CC(N)=O)C(=O)N[C@@H](CO)C(=O)N[C@@H](CCSC)CC(=O)N[C@@H](CCCNC(=N)N)C(=O)N[C@@H](CCCNC(=N)N)C(=O)N[C@H](C(=O)N[C@@H](CCC(=O)O)CC(=O)N[C@@H](Cc1c[nH]c2ccccc12)C(=O)N[C@@H](CC(C)C)C(=O)N[C@@H](CCCNC(=N)N)C(=O)N[C@@H](CCCCN)CC(=O)N[C@@H](CCCCN)C(=O)N[C@@H](CC(C)C)C(=O)N[C@@H](CCC(N)=O)C(=O)N[C@@H](CC(=O)O)CC(=O)N[C@H](C(=O)N[C@@H](Cc1cnc[nH]1)C(=O)N[C@@H](CC(N)=O)C(=O)N[C@H](CC(N)=O)Cc1ccccc1)C(C)C)C(C)C)Cc1c[nH]c2ccccc12 ({ACPC(1S,2S)}-V[Aib]EIQ[X1]MHQ[hArg]AK[β3hW]LNS[β3hM]RRV[β3hE]WLR[β3hK]KLQ[β3hD]VHN[β3hF]-NH2) | 0.83 | 10 |
| CC[C@H](C)[C@H](NC(=O)[C@H](CCC(=O)O)NC(=O)[C@H](CO)NC(=O)[C@@H](NC(=O)[C@H]1CCC[C@@H]1N)C(C)C)C(=O)N[C@@H](CCC(N)=O)C(=O)N[C@H]1CCC[C@@H]1C(=O)N[C@@H](CCSC)C(=O)N[C@@H](Cc1cnc[nH]1)C(=O)N[C@@H](CC(N)=O)C(=O)N[C@@H](CC(C)C)C(=O)NCC(=O)N[C@@H](CCCCN)C(=O)N[C@H](CC(=O)N[C@@H](CC(C)C)C(=O)N[C@@H](CC(N)=O)C(=O)N[C@@H](CO)C(=O)N[C@@H](CCSC)CC(=O)N[C@@H](CCC(=O)O)C(=O)N[C@@H](CCCNC(=N)N)C(=O)N[C@H](C(=O)N[C@@H](CCC(=O)O)CC(=O)N[C@@H](Cc1c[nH]c2ccccc12)C(=O)N[C@@H](CC(C)C)C(=O)N[C@@H](CCCNC(=N)N)C(=O)N[C@@H](CCCCN)CC(=O)N[C@@H](CCCCN)C(=O)N[C@@H](CC(C)C)C(=O)N[C@@H](CCC(N)=O)C(=O)N[C@@H](CC(=O)O)CC(=O)N[C@H](C(=O)N[C@@H](Cc1cnc[nH]1)C(=O)N[C@@H](CC(N)=O)C(=O)N[C@H](CC(N)=O)Cc1ccccc1)C(C)C)C(C)C)Cc1c[nH]c2ccccc12 ({ACPC(1S,2S)}-VSEIQ[X1]MHNLGK[β3hW]LNS[β3hM]ERV[β3hE]WLR[β3hK]KLQ[β3hD]VHN[β3hF]-NH2) | 1.84 | 22.6 |
